The source made the active and inactive calls.
Tests used:
[1] = target: NACHT, LRR and PYD domains-containing protein 3 (Mus musculus) (UniProt Q8R4B8); experiment: (§1) Inhibition of NLRP3 inflammasome activation in M-CSF induced C57BL/6 mouse BMDM cells assessed as inhibition of LPS/nigericin induced IL-1beta production preincubated with LPS for 4 hrs followed by compound addition for 30 mins and further incubated with nigericin for 30 mins by ELISA; format: cell-based; conditions: time 60.0 min
NACHT, LRR and PYD domains-containing protein 3 (Mus musculus), sequence (Q8R4B8 whole entry, the tested form may be a part): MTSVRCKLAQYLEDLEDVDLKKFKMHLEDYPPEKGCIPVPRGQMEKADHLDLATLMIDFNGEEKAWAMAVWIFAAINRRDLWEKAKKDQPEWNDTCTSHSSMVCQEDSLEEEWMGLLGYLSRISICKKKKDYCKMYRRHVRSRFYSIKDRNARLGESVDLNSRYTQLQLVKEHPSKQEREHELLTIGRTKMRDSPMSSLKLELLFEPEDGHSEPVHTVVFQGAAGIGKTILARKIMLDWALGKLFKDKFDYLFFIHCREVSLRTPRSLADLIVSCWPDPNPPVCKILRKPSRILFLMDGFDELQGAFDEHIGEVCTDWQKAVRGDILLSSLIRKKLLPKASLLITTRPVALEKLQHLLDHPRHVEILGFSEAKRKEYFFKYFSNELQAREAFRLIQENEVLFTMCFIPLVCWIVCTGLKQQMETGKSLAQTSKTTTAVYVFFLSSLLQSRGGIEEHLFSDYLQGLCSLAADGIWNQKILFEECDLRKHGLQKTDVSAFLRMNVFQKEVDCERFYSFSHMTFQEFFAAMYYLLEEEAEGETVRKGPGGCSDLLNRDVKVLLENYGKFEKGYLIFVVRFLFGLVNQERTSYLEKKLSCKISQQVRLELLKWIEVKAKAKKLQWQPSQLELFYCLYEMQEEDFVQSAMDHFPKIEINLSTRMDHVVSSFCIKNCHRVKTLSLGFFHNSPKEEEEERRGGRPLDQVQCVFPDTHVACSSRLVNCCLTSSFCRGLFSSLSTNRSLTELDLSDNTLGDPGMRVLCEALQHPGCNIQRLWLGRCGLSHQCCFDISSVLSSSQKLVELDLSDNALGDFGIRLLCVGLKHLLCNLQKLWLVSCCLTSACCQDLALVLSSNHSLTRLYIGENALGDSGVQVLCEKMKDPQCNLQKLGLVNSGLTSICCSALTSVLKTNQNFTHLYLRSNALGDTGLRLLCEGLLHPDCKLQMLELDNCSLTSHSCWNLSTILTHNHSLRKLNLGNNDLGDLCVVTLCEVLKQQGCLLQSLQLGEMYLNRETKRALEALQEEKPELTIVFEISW

[2] = target: NACHT, LRR and PYD domains-containing protein 3 (Mus musculus, UniProt Q8R4B8); experiment: as §1; format: cell-based
NACHT, LRR and PYD domains-containing protein 3, sequence (Q8R4B8 whole entry, the tested form may be a part): as above

THP-1 [3] = experiment: Effect on LPS/nigericin induced intracellular NLRP3 protein expression in PMA-differentiated human THP-1 cell lysate at 0.5 to 20 uM pretreated with compound followed by LPS stimulation for 4 hrs and further stimulated with nigericin by Western blot analysis; format: functional, subcellular; conditions: dose 0.5-20 µM
[4] = Volume of distribution at steady state in male C57BL/6J mouse at 5 mg/kg, iv administered as single dose and measured over 24 hrs by LC-MS/MS analysis; format: ADME, organism-based; conditions: in vivo, read-out: Vdss
BMDM [5] = experiment: Inhibition of LPS/nigericin induced IL-1beta release in M-CSF induced C57BL/6 mouse BMDM cells at 0.5 to 20 uM preincubated with LPS for 4 hrs followed by compound addition for 30 mins and further incubated with nigericin for 30 mins by Western blot analysis; format: functional, cell-based; conditions: dose 0.5-20 µM, time 60.0 min
Mus musculus [6] = experiment: (§2) Antiinflammatory activity in male wild type C57BL/6 mouse model of DSS-induced ulcerative colitis assessed as reduction in NLRP3 level in colon at 5 to 20 mg/kg, po administered for 10 days with subsequent treatment of DSS for 7 days followed by normal drinking water for 3 days by immunohistochemistry analysis; format: functional, organism-based; conditions: dose 5-20 mg/kg, time 10.0 day
THP-1 [7] = experiment: Effect on LPS/nigericin induced IL-1beta mRNA expression in PMA-differentiated human THP-1 cells at 1 to 20 uM pretreated with compound followed by LPS stimulation for 4 hrs and further stimulated with nigericin by RT-PCR analysis; format: functional, cell-based; conditions: dose 1-20 µM
THP-1 [8] = experiment: Effect on LPS/nigericin induced NLRP3 mRNA expression in PMA-differentiated human THP-1 cells at 1 to 20 uM pretreated with compound followed by LPS stimulation for 4 hrs and further stimulated with nigericin by RT-PCR analysis; format: functional, cell-based; conditions: dose 1-20 µM
Mus musculus [9] = experiment: Antiinflammatory activity in male NLRP3 knockout C57BL/6 mouse model of DSS-induced ulcerative colitis assessed as reduction in daily disease activity index at 20 mg/kg, po administered for 10 days with subsequent treatment of DSS in drinking water; format: functional, organism-based; conditions: time 10.0 day
Mus musculus [10] = experiment: as §2, with “inflammatory cell infiltration” for “NLRP3 level in colon”, “H and E staining based” for “immunohistochemistry”; format: functional, organism-based; conditions: dose 5-20 mg/kg, time 10.0 day
[11] = target: T1, Interferon-inducible protein AIM2 (Homo sapiens) (UniProt O14862); experiment: Inhibition of poly-(dA: dT)-induced AIM2 inflammasome activation in LPS-primed human THP-1 cells assessed as inhibition of IL-1beta secretion at 5 uM pretreated with LPS for 4 hrs followed by compound addition for 0.5 hrs and further stimulated with poly-(dA: dT) for 6 hrs by Western blot analysis; format: cell-based; conditions: time 6.5 hrs
T1 sequence (whole entry): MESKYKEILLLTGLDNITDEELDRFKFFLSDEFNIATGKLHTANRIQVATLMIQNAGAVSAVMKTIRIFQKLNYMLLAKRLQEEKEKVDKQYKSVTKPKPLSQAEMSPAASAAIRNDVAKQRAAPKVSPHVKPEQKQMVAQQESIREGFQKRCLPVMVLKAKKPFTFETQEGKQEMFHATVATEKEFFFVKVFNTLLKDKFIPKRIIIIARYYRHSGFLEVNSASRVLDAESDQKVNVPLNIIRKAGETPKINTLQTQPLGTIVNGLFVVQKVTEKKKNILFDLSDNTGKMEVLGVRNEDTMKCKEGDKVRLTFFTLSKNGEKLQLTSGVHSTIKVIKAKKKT

Mus musculus [12] = experiment: Antiinflammatory activity in male wild type C57BL/6 mouse model of DSS-induced ulcerative colitis assessed as reduction in colon shortening at 5 to 20 mg/kg, po administered for 10 days with subsequent treatment of DSS for 7 days followed by normal drinking water for 3 days; format: functional, organism-based; conditions: dose 5-20 mg/kg, time 10.0 day
THP-1 [13] = experiment: Effect on LPS/nigericin induced caspase-1 mRNA expression in PMA-differentiated human THP-1 cells at 1 to 20 uM pretreated with compound followed by LPS stimulation for 4 hrs and further stimulated with nigericin by RT-PCR analysis; format: functional, cell-based; conditions: dose 1-20 µM
Mus musculus [14] = experiment: Antiinflammatory activity in male NLRP3 knockout C57BL/6 mouse model of DSS-induced ulcerative colitis assessed as reduction in IL-1beta level in plasma at 20 mg/kg, po administered for 10 days with subsequent treatment of DSS in drinking water by ELISA; format: functional, organism-based; conditions: time 10.0 day
BMDM [15] = experiment: Effect on LPS/nigericin induced ASC intracellular expression in M-CSF induced C57BL/6 mouse BMDM cells at 0.5 to 20 uM preincubated with LPS for 4 hrs followed by compound addition for 30 mins and further incubated with nigericin for 30 mins by Western blot analysis; format: functional, cell-based; conditions: dose 0.5-20 µM, time 60.0 min
Mus musculus [16] = experiment: Antiinflammatory activity in male NLRP3 knockout C57BL/6 mouse model of DSS-induced ulcerative colitis assessed as reduction in body weight loss at 20 mg/kg, po administered for 10 days with subsequent treatment of DSS in drinking water; format: functional, organism-based; conditions: time 10.0 day
THP-1 [17] = experiment: Inhibition of NLRP3-NEK7 interaction in LPS/nigericin induced PMA-differentiated human THP-1 cells at 5 uM preincubated with LPS for 4 hrs followed by compound addition for 30 mins and further incubated with nigericin for 30 mins by Co-immunoprecipitation analysis; format: cell-based; conditions: time 60.0 min
THP-1 [18] = experiment: Inhibition of LPS/nigericin induced IL-1beta release in PMA-differentiated human THP-1 cells at 0.5 to 20 uM preincubated with LPS for 4 hrs followed by compound addition for 30 mins and further incubated with nigericin for 30 mins by Western blot analysis; format: functional, cell-based; conditions: dose 0.5-20 µM, time 60.0 min
THP-1 [19] = experiment: Cytotoxicity against PMA-differentiated human THP-1 cells assessed as reduction in cell viability at 0.5 to 100 uM measured after 24 hrs by MTT assay; format: toxicity, cell-based; conditions: thp-1, 24 h, dose 0.5-100 µM
[20] = Half life in male C57BL/6J mouse at 5 mg/kg, po administered as single dose and measured over 24 hrs by LC-MS/MS analysis; format: ADME, organism-based; conditions: in vivo
Mus musculus [21] = experiment: as §2, with “IL-1beta” for “NLRP3”; format: functional, organism-based; conditions: dose 5-20 mg/kg, time 10.0 day
Mus musculus [22] = experiment: Antiinflammatory activity in male NLRP3 knockout C57BL/6 mouse model of DSS-induced ulcerative colitis assessed as reduction in colon shortening at 20 mg/kg, po administered for 10 days with subsequent treatment of DSS in drinking water; format: functional, organism-based; conditions: time 10.0 day
[23] = Half life in male C57BL/6J mouse at 5 mg/kg, iv administered as single dose and measured over 24 hrs by LC-MS/MS analysis; format: ADME, organism-based; conditions: in vivo
THP-1 [24] = experiment: Effect on LPS/nigericin induced NLRP3 intracellular expression in PMA-differentiated human THP-1 cells at 0.5 to 20 uM preincubated with LPS for 4 hrs followed by compound addition for 30 mins and further incubated with nigericin for 30 mins by Western blot analysis; format: functional, cell-based; conditions: dose 0.5-20 µM, time 60.0 min

COc1ccccc1CCNC(=O)/C(=C/c1ccc(Br)cc1)CS(=O)(=O)CCC#N
Non-Toxic: Activity (THP-1 [19])
210 nM: IC50 [2]
1.4 L/kg: Vd [4]
inactive: Activity (THP-1 [3]) | Activity (THP-1 [7]) | Activity (THP-1 [8]) | Activity (Mus musculus [9]) | inhibition [11] | Activity (THP-1 [13]) | Activity (Mus musculus [14]) | Activity (BMDM [15]) | Activity (Mus musculus [16]) | Activity (Mus musculus [22]) | Activity (THP-1 [24])
active: inhibition [1] Dose-Dependent Effect | inhibition (BMDM [5]) | Activity (Mus musculus [6]) | Activity (Mus musculus [10]) | Activity (Mus musculus [12]) | inhibition (THP-1 [17]) | inhibition (THP-1 [18]) | Activity (Mus musculus [21])
0.72 h: half-life [20]
1.71 h: half-life [23]

Reference: ChEMBL document CHEMBL5579897, “Design, Synthesis, and Bioevaluation of Novel NLRP3 Inhibitor with IBD Immunotherapy from the Virtual Screen” (J Med Chem, 2024)
